Key:
[1] = tested on: GAT-1 in patient astrocytes; test: 3H GABA uptake, patient iPSC derived astrocytes; type: cell-based, human; conditions: PBA 2 mM
Experimental: Live images of human neural progenitor cells (NPCs), astrocytes and GABAergic inhibitory neurons differentiated from the human induced pluripotent stem cells (iPSCs) on the day of experiment. […] The DMSO treated corrected or patient cells was taken as 1. […] GABA flux was measured after 30 min transport at room temperature. The influx of GABA, expressed in pmol/μg protein/min, was averaged from duplicates for each condition and for each transfection. The average counting was DMSO treated condition taken as 1. In FIG. 5B, FIG. 5D and FIG. 5F, 966 stands for CI-966 (50 μM) and 711 stands for NNC-711 (35 μM) that was applied 30 min to the astrocytes transfected with the wildtype GAT-1^YFP before preincubation and removed during preincubation. In FIGS. 5B and D, ***p<0.001 vs. corrected DMSO treated. § § <0.01, § § § p<0.001 vs. patient DMSO treated. […] In FIGS. 5B-E, n=4-8 batches of cells. In FIG. 5F, n=4-5 different transfections). Unpaired t test was used for FIG. 5C and FIG. 5E. […] Values were expressed as mean±S.E.M.). […]
Briefly, cells were cultured in […] dishes for 3 days before the GABA uptake experiment in DMEM with 10% fetal bovine serum and 1% penicillin/streptomycin. […] Glacial acetic acid was added, and lysates were then determined on a liquid scintillator with QuantaSmart. […]

neural progenitor cells = test: GABA uptake in neural progenitor cells; type: cell-based; conditions: NPCs; data not shown
Experimental: NPCs were differentiated from iPSCs at passage 22-24 with differentiation of neural progenitor cells (NPCs) was induced by STEMdiff SMADi Neural induction kit from […]. iPSCs were seeded in a Geltrex coated dish at a density of ˜2×10^6 cells/per one 35 mm^2 dish or 6 well plate. The medium was refreshed daily, and the cells were passaged at day 5-7. NPCs at Passage 1 which was at least 10-12 days after neural induction were used for this study.
Briefly, cells were cultured in […] dishes for 3 days before the GABA uptake experiment in DMEM with 10% fetal bovine serum and 1% penicillin/streptomycin. The cells were then transfected with equal amounts of the wildtype or the mutant GAT-1 cDNAs (1 μg) for each condition at 24 hrs or 48 hrs after plating. GABA uptake assay was carried out 48 hrs after transfection. The cells were incubated with preincubation solution for 15 min and then incubated with preincubation solution containing 1 μci/mL 3H GABA and 10 μM unlabeled GABA for 30 min at room temperature. After washing, the cells were lysed with 0.25 N NaOH for 1 hr. Glacial acetic acid was added, and lysates were then determined on a liquid scintillator with QuantaSmart. The flux of GABA (pmol/μg/min) was averaged with at least triplets for each condition at each transfection. The average counting was taken as n=1. […]

GAT-1 = GAT-1 protein expression in brain regions of SLC6A1^+/S295L heterozygous mice; type: in vivo, mouse; conditions: S295L het; cerebellum; PBA 100 mg/kg, 7 days
Description: FIGS. 8C-D show integrated density values (IDVs) for total GAT-1 from wild-type and het KI were normalized to the Na^+/K^+ ATPase or anti-glyceraldehyde-3-phosphate dehydrogenase (GAPDH) loading control (LC) in each specific brain region and plotted. N=4 from 4 pairs of mice. […] The vehicle treated in each brain region was taken as 1. N=4 from 4 pairs of mice for FIG. 8C, FIG. 8D, FIG. 8G and FIG. 8H, Values were expressed as mean±S.E.M. One way ANOVA or unpaired t test.
The working solution was stored at 4° C.
Data were expressed as mean±SEM. Proteins were quantified by Odyssey software and data were normalized to loading controls and then to the wildtype subunit protein, which was arbitrarily taken as 1 in each experiment. Fluorescence intensities from confocal microscopy experiments were determined using MetaMorph imaging software, and the measurements were carried out in ImageJ. For statistical significance, one-way or two-way analysis of variance (ANOVA) with post hoc Dunnett or Newman-Keuls test were used. In some cases, unpaired t-test or one sample t-test was performed (GraphPad Prism, La Jolla, CA), and statistical significance was taken as p<0.05.

O=C(O)CCCc1ccccc1 [PBA, 4-phenylbutyric acid]
GABA uptake normalized to its DMSO treated ([1]; 24 hrs): 1.387±0.08 | GABA uptake of the patient cells as % of the corrected cells ([1]; 24 hrs (57% with DMSO)): 81% | GABA uptake in neural progenitor cells after PBA treatment (neural progenitor cells): increase | GAT-1 expression vs. same brain region of vehicle treated mice taken as 1 (GAT-1): 1.03±0.03
